The results in this text go back to patent US20120046357A1, “Benzamide and Napthamide Derivatives Inhibiting Nuclear Factor-Kappa (B) - (NK-kB)” (Profectus Biosciences, Inc., priority 2009, published 2012).

Structures are written as SMILES. pEC50: −log10 of the molar value.

By pEC50 is commonly meant the negative decadic logarithm of the EC50, by convention in mol/L.

For one assay, the system named is PGE2 release from RAW264.7 cells. Put plainly: LPS-stimulated PGE2 release from RAW264.7 cells (immunoassay). Format: cell-based. As to conditions: Mus musculus, 2 h pretreatment, 1 μg/mL LPS 20-24 h, read-out: RAW 264.7 PGE2 release EC50. Here is the method:
RAW 264.7 cells were seeded at 4×10^4 cells per well n complete growth medium in 96 well white TC plates with clear bottoms one day prior to the assay. The next day the cells were washed once and 100 μL fresh growth media was added. Cells were pretreated with 0.5 μL from a 6 point 200× dilution series of the test compounds in DMSO for 2 hours. Following pretreatment with the drugs, the inflammatory response was induced by adding 5 μL of a 20 μg/mL solution of LPS (Sigma). The cells were incubated in the presence of the drugs and 1 μg/mL LPS for another 20-24 hours. Typically after treatment the total DMSO was […] of the culture volume and the final concentrations of the compounds were approximately: 40, 20, 10, 1, 0.2 and 0 μM depending on the MW of each compound. Modified dilution series were prepared as needed to get adequate dose response curves without changing the % DMSO. Samples were run in duplicate or triplicate and included DMSO treated control wells with and without LPS stimulation. Drugs with a known activity such as Parthenolide or DHMEQ were run as experimental controls. After 20-24 hours LPS activation, the media supernatant was collected from the cells and replaced with fresh media. The supernatant samples were cleared by centrifugation at 1,000×g for 5 minutes, transferred to fresh storage plates, and stored frozen at −30° C.
After determining the appropriate supernatant dilutions experimentally, PGE2 levels in the supernatants were quantified using Parameter™ PGE2 Immunoassay (R&D Systems) according to the manufacturer's protocol. 100 µL of the supernatants diluted in Calibrator Diluent and 50 μL of a primary monoclonal anti-PGE2 antibody were added to the microplate wells pre-coated with a goat anti-mouse Ig capture antibody. Then 50 μL of an HRP conjugated PGE2 competitor was added. Controls included non-specific binding (NSB) wells containing Calibrator Diluent but no primary antibody and a recombinant PGE2 standard dilution series (40-5000 pg/mL). The plates were incubated at room temperature for 2 hours with shaking and then washed 5 times with 400 μL 1× Wash Buffer. Equal volumes of Color Reagents A and B were mixed and 200 μL of this HRP Substrate Solution was added to each well on the plate. The blue color was allowed to develop for 30 minutes and then the reaction was stopped using 50 μL of Stop Solution yielding a yellow color. Absorbance at 450 nm with a reference at 595 nm was recorded using a […] DTX 880 Multimode Detector.
The concentration of PGE2 in the unknown samples was determined from a curve-fit of the PGE2 standard absorbance data and multiplying by the dilution factor. The maximum activity achieved in the absence of the inhibitor (DMSO+LPS treated wells) was arbitrarily given a value of 100%; likewise the minimum activity in the absence of the stimulant (no LPS treated wells) was assigned a value of 0%. Inhibition of the amount of PGE2 released in the drug treated wells was calculated relative to the maximum activation in the DMSO+LPS treated control wells (i.e., % inhibition=100−(drug+LPS treated)/(DMSO+LPS treated)). Dose response curves were used to determine the effective concentration to inhibit 50% of the PGE2 released (IC50) by means of a SigmaPlot macro which fits a sigmoidal dose-response curve to the (log 10) μM concentration versus inhibition. […] This technique yields an objective value for the IC50 provided that 50% inhibition was approached at the concentrations tested.
Take `O=C(NC1=CC(=O)C2OC2C1O)c1ccc(C(F)(F)F)cc1O` (racemic) [Example 1, 2-hydroxy-N-(2-hydroxy-5-oxo-7-oxabicyclo[4.1.0]hept-3-en-3-yl)-4-(trifluoromethyl)benzamide]: the pEC50 is 4.88.

With `O=C(NC1=CC(=O)C2OC2C1O)c1ccc(Cl)cc1O` (racemic) [Example 2, (±)-4-chloro-2-hydroxy-N-(2-hydroxy-5-oxo-7-oxabicyclo[4.1.0]hept-3-en-3-yl)benzamide], the negative-log EC50 (pEC50) was 5.23.

In the case of `O=C(NC1=CC(=O)C2OC2C1O)c1cccc(Cl)c1O` (racemic) [Example 6, (±)-3-chloro-2-hydroxy-N-(2-hydroxy-5-oxo-7-oxabicyclo[4.1.0]hept-3-en-3-yl)benzamide], the negative logarithm of the EC50 (pEC50) was 5.14.

For `O=C(NC1=CC(=O)C2OC2C1O)c1cc2ccccc2cc1O` (racemic) [Example 7, (±)-3-hydroxy-N-(2-hydroxy-5-oxo-7-oxabicyclo[4.1.0]hept-3-en-3-yl)-2-naphthamide], the pEC50 was 5.34.

Regarding `COc1ccc(C(=O)NC2=CC(=O)C3OC3C2O)c(O)c1` (racemic) [Example 5, (±)-2-hydroxy-N-(2-hydroxy-5-oxo-7-oxabicyclo[4.1.0]hept-3-en-3-yl)-4-methoxybenzamide], the pEC50 is 5.24.

With `Cc1cccc(C(=O)NC2=CC(=O)C3OC3C2O)c1O` (racemic) [Example 4, (±)-2-hydroxy-N-(2-hydroxy-5-oxo-7-oxabicyclo[4.1.0]hept-3-en-3-yl)-3-methylbenzamide], the pEC50 is 5.59.

Consider `Cc1ccc(C(=O)NC2=CC(=O)C3OC3C2O)c(O)c1` (racemic) [Example 3, (±)-2-hydroxy-N-(2-hydroxy-5-oxo-7-oxabicyclo[4.1.0]hept-3-en-3-yl)-4-methylbenzamide], for which the pEC50 was 5.00.

Another assay deals with RPMI8226 multiple myeloma cells. Put plainly: Multiple myeloma growth inhibition (CellTiter-Glo), RPMI 8226. As to conditions: 48 hours, FIG. 6. Format: cell-based. As to the method: (§1) Cryogenically stored RPMI 8226 and U266B1 cells (ATCC, Manassas, Va.) were thawed and cultured according to the vendor's recommendations. Cells were plated in 96-well white-wall tissue culture plates at a concentration of 2×10^5 cells/ml (0.1 ml per well) and incubated overnight at 37° C. in a humidified 5% CO2 atmosphere. Compounds were added to each well at the indicated concentrations (0.5 μl of 200×DMSO stock) and incubated with the cells for 48 hours. Cell viability was detected by adding 100 μl CellTiter-Glo Reagent (Promega, Madison, Wis.) to each well, mixing with pipette, and incubating at room temperature for 10 minutes. Luminescence was read with a DTX 880 Multimode Detector (Beckman Coulter, Fullerton, Calif.). Data was analyzed with SigmaPlot 11 (Systat Software, San Jose, Calif.) software.
Take `CN(C)c1ccc(C(=O)NC2=CC(=O)C3OC3C2O)c(O)c1` (racemic) [Example 10, (±)-4-(dimethylamino)-2-hydroxy-N-(2-hydroxy-5-oxo-7-oxabicyclo[4.1.0]hept-3-en-3-yl)benzamide]: the “growth inhibition of RPMI8226 multiple myeloma cells” value is given as “growth inhibition”.

The test system of the next assay is U266B1 multiple myeloma cells. The assay is described as follows: Multiple myeloma growth inhibition (CellTiter-Glo), U266B1. Format: cell-based. As to conditions: 48 hours, FIG. 7. As to the method: as §1
(In ATP-based viability assays light output follows the ATP content of the culture.)
With `CN(C)c1ccc(C(=O)NC2=CC(=O)C3OC3C2O)c(O)c1` (racemic) [Example 10, (±)-4-(dimethylamino)-2-hydroxy-N-(2-hydroxy-5-oxo-7-oxabicyclo[4.1.0]hept-3-en-3-yl)benzamide], the “growth inhibition of U266B1 multiple myeloma cells” value is recorded as “growth inhibition”.
